Data reported in article PMC11287240 (RSC Advances, 2024).
Like-named read-outs stand apart in the source and are kept apart here.

Legend:
[1] = target: EeAChE (Electrophorus electricus acetylcholinesterase) (Electrophorus electricus, UniProt O42275); test: AChE inhibition assay; format: biochemical, electric eel
hBACE 1 = hBACE 1 (Homo sapiens, UniProt P56817); test: BACE 1 FRET inhibition assay; format: biochemical; conditions: human BACE 1
[2] = hBACE 1 IC50 (μM) ± SD, mean ± SD, n = 3, FRET assay
[3] = read-out: EeAChE IC50 (μM) ± SD, mean ± SD, n = 3, AChE from electric eel, Ellman assay
[4] = read-out: hBACE 1 IC50 (μM) ± SD, mean ± SD, n = 3, FRET assay

Chain of EeAChE (Electrophorus electricus acetylcholinesterase) (O42275 24-633): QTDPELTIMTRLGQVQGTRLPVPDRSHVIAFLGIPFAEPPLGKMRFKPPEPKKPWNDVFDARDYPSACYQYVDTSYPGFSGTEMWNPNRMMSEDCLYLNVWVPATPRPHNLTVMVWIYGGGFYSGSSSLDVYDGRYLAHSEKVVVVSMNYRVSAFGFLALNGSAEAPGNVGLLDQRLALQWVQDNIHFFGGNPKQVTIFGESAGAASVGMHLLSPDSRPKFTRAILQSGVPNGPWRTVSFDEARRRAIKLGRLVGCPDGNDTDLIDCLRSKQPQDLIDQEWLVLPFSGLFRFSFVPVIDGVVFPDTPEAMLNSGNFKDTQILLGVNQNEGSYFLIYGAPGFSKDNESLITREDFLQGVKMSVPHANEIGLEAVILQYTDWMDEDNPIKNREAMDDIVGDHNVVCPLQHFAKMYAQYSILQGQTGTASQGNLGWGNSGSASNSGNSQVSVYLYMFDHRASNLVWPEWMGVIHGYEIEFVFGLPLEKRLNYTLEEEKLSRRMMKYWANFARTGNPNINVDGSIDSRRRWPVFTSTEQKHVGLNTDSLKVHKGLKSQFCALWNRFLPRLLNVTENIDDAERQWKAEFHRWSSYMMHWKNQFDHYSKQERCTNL
Chain of hBACE 1 (P56817 46-501): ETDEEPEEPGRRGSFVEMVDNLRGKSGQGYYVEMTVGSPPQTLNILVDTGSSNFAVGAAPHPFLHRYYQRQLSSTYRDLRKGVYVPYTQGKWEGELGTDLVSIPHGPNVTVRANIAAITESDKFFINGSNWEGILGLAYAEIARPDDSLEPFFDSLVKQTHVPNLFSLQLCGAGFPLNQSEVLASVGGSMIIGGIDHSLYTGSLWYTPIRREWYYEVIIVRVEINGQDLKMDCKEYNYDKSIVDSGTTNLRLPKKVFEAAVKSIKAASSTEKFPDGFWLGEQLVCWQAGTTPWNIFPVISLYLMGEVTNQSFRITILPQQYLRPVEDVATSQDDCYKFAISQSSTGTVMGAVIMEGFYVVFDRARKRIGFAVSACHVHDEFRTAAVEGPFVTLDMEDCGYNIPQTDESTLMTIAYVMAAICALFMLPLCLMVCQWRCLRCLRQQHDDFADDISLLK

Structure (SMILES) | IC50 [1] [µM] | IC50 (hBACE 1; [2]) [µM] | IC50 (hBACE 1; hBACE 1 PIC50 (μM)) [µM] | EeAChE PIC50 ([1]; AChE from electric eel) [µM] | IC50 [1, 3] [µM] | hBACE 1 PIC50 (hBACE 1) [µM] | IC50 (hBACE 1; [4]) [µM]
[H]/N=C(/N)NN=C(/C=C/c1cccc(F)c1)c1cn(Cc2ccccc2)c2ccccc12 [Compound 1f, (Z)-2-((E)-1-(1-Benzyl-1H-indol-3-yl)-3-(3-fluorophenyl)allylidene)hydrazine-1-carboximidamide] | 67 ± 1.95 | 88.59 ± 0.32 | 89.1 | – | – | – | –
[H]/N=C(/N)NN=C(/C=C/c1ccc(F)c(F)c1)c1cn(Cc2ccccc2)c2ccccc12 [Compound 1a, (Z)-2-((E)-1-(1-Benzyl-1H-indol-3-yl)-3-(3,4-difluorophenyl)allylidene)hydrazine-1-carboximidamide] | 77.2 ± 2.24 | 72.11 ± 0.01 | 72.4 | – | – | – | –
[H]/N=C(/N)NN=C(/C=C/c1ccc(OC)c(OC)c1)c1cn(Cc2ccccc2)c2ccccc12 [Compound 1c, (Z)-2-((E)-1-(1-Benzyl-1H-indol-3-yl)-3-(3,4-dimethoxyphenyl)allylidene)hydrazine-1-carboximidamide] | 77.1 ± 1.54 | 59.51 ± 0.21 | 58.9 | – | – | – | –
[H]/N=C(/N)NN=C(/C=C/c1ccc(C(F)(F)F)cc1)c1cn(Cc2ccc(C(F)(F)F)cc2)c2ccccc12 [Compound 3a, (Z)-2-((E)-1-(1-(4-(Trifluoromethyl)benzyl)-1H-indol-3-yl)-3-(4-(trifluoromethyl)phenyl)allylidene)hydrazine-1-carboximidamide] | – | – | – | 4.42 | 38.4 ± 3.46 | 3.65 | 222.3 ± 0.49
[H]/N=C(/N)NN=C(/C=C/c1ccc(C(C)C)cc1)c1cn(Cc2cc(F)ccc2F)c2ccccc12 [Compound 3f, (Z)-2-((E)-1-(1-(2,5-Difluorobenzyl)-1H-indol-3-yl)-3-(4-isopropylphenyl)allylidene)hydrazine-1-carboximidamide] | 167 ± 2.12 | 82.1 ± 2.74 | 81.3 | – | – | – | –
[H]/N=C(/N)NN=C(/C=C/c1ccc(F)cc1F)c1cn(Cc2ccccc2)c2ccccc12 [Compound 1m, (Z)-2-((E)-1-(1-Benzyl-1H-indol-3-yl)-3-(2,4-difluorophenyl)allylidene)hydrazine-1-carboximidamide] | – | – | – | 3.83 | 148 ± 3.11 | 4.89 | 12.8 ± 0.5
[H]/N=C(/N)NN=C(/C=C/c1ccc(C(C)(C)C)cc1)c1cn(Cc2ccccc2)c2ccccc12 [Compound 1b, (Z)-2-((E)-1-(1-Benzyl-1H-indol-3-yl)-3-(4-(tert-butyl)phenyl)allylidene)hydrazine-1-carboximidamide] | 42.9 ± 0.48 | 97.4 ± 1.36 | 97.7 | – | – | – | –
[H]/N=C(/N)NN=C(/C=C/c1ccccc1)c1cn(Cc2cc(C(F)(F)F)cc(C(F)(F)F)c2)c2ccccc12 [Compound 2c, (Z)-2-((E)-1-(1-(3,5-Bis(trifluoromethyl)benzyl)-1H-indol-3-yl)-3-phenylallylidene)hydrazine-1-carboximidamide] | 56.6 ± 0.98 | 70 ± 0.87 | 70.8 | – | – | – | –
[H]/N=C(/N)NN=C(/C=C/c1ccccc1)c1cn(Cc2ccc(F)cc2F)c2ccccc12 [Compound 2a, (Z)-2-((E)-1-(1-(2,4-Difluorobenzyl)-1H-indol-3-yl)-3-phenylallylidene)hydrazine-1-carboximidamide] | 46.4 ± 1.63 | 200.1 ± 1.98 | 200 | – | – | – | –
[H]/N=C(/N)NN=C(/C=C/c1ccccc1[N+](=O)[O-])c1cn(Cc2ccccc2)c2ccccc12 [Compound 1n, (Z)-2-((E)-1-(1-Benzyl-1H-indol-3-yl)-3-(2-nitrophenyl)allylidene)hydrazine-1-carboximidamide] | 216 ± 3.61 | 12.3 ± 0.6 | 12.3 | – | – | – | –
[H]/N=C(/N)NN=C(/C=C/c1cccc(OC)c1OC)c1cn(Cc2ccccc2)c2ccccc12 [Compound 1p, (Z)-2-((E)-1-(1-Benzyl-1H-indol-3-yl)-3-(2,3-dimethoxyphenyl)allylidene)hydrazine-1-carboximidamide] | 48.6 ± 1.51 | 134 ± 1.42 | 135 | – | – | – | –
[H]/N=C(/N)NN=C(/C=C/c1ccc(Br)cc1)c1cn(Cc2ccccc2)c2ccccc12 [Compound 1i, (Z)-2-((E)-1-(1-Benzyl-1H-indol-3-yl)-3-(4-bromophenyl)allylidene)hydrazine-1-carboximidamide] | 73.1 ± 2.07 | 97.83 ± 0.31 | 97.7 | – | – | – | –
[H]/N=C(/N)NN=C(/C=C/c1ccccc1)c1cn(Cc2ccc(C(F)(F)F)cc2)c2ccccc12 [Compound 2b, (Z)-2-((E)-3-Phenyl-1-(1-(4-(trifluoromethyl)benzyl)-1H-indol-3-yl)allylidene)hydrazine-1-carboximidamide] | 56 ± 2.44 | 102 ± 1.06 | 102 | – | – | – | –
[H]/N=C(/N)NN=C(/C=C/c1ccc(C#N)cc1)c1cn(Cc2ccccc2)c2ccccc12 [Compound 1l, (Z)-2-((E)-1-(1-Benzyl-1H-indol-3-yl)-3-(4-cyanophenyl)allylidene)hydrazine-1-carboximidamide] | 60.9 ± 2.53 | 9.38 ± 0.5 | 9.33 | – | – | – | –
[H]/N=C(/N)NN=C(/C=C/c1ccccc1C)c1cn(Cc2ccccc2)c2ccccc12 [Compound 1r, (Z)-2-((E)-1-(1-Benzyl-1H-indol-3-yl)-3-(o-tolyl)allylidene)hydrazine-1-carboximidamide] | 46.8 ± 1.83 | 206 ± 3.75 | 204 | – | – | – | –
[H]/N=C(/N)NN=C(/C=C/c1ccccc1)c1cn(Cc2ccc(Br)cc2F)c2ccccc12 [Compound 2i, (Z)-2-((E)-1-(1-(4-Bromo-2-fluorobenzyl)-1H-indol-3-yl)-3-phenylallylidene)hydrazine-1-carboximidamide] | 42.6 ± 1.58 | 185.95 ± 0.07 | 186 | – | – | – | –
[H]/N=C(/N)NN=C(/C=C/c1ccc(C(C)C)cc1)c1cn(Cc2ccccc2)c2ccccc12 [Compound 1d, (Z)-2-((E)-1-(1-Benzyl-1H-indol-3-yl)-3-(4-isopropylphenyl)allylidene)hydrazine-1-carboximidamide] | 146 ± 3.18 | 11.7 ± 0.15 | 11.7 | – | – | – | –
[H]/N=C(/N)NN=C(/C=C/c1ccc(Cl)cc1)c1cn(Cc2ccccc2)c2ccccc12 [Compound 1q, (Z)-2-((E)-1-(1-Benzyl-1H-indol-3-yl)-3-(4-chlorophenyl)allylidene)hydrazine-1-carboximidamide] | 82.6 ± 1.92 | 16.5 ± 0.39 | 16.6 | – | – | – | –
[H]/N=C(/N)NN=C(/C=C/c1ccccc1)c1cn(Cc2cc(OC)cc(OC)c2)c2ccccc12 [Compound 2g, (Z)-2-((E)-1-(1-(3,5-Dimethoxybenzyl)-1H-indol-3-yl)-3-phenylallylidene)hydrazine-1-carboximidamide] | 55.6 ± 0.72 | 83.4 ± 1.93 | 83.2 | – | – | – | –
[H]/N=C(/N)NN=C(/C=C/c1ccccc1)c1cn(Cc2ccccc2C#N)c2ccccc12 [Compound 2e, (Z)-2-((E)-1-(1-(2-Cyanobenzyl)-1H-indol-3-yl)-3-phenylallylidene)hydrazine-1-carboximidamide] | 44.02 ± 0.19 | 197 ± 2.42 | 195 | – | – | – | –
[H]/N=C(/N)NN=C(/C=C/c1ccc(OC)c(OC)c1)c1cn(Cc2cc(OC)cc(OC)c2)c2ccccc12 [Compound 3b, (Z)-2-((E)-1-(1-(3,5-Dimethoxybenzyl)-1H-indol-3-yl)-3-(3,4-dimethoxyphenyl)allylidene)hydrazine-1-carboximidamide] | 22 ± 0.65 | 198 ± 3.18 | 200 | – | – | – | –
[H]/N=C(/N)NN=C(/C=C/c1ccc(C(C)(C)C)cc1)c1cn(Cc2ccc(C(F)(F)F)cc2)c2ccccc12 [Compound 3k, (Z)-2-((E)-3-(4-(tert-Butyl)phenyl)-1-(1-(4-(trifluoromethyl)benzyl)-1H-indol-3-yl)allylidene)hydrazine-1-carboximidamide] | 207 ± 7.64 | 139 ± 1.98 | 138 | – | – | – | –
[H]/N=C(/N)NN=C(/C=C/c1ccccc1)c1cn(Cc2cccc(C#N)c2)c2ccccc12 [Compound 2j, (Z)-2-((E)-1-(1-(3-Cyanobenzyl)-1H-indol-3-yl)-3-phenylallylidene)hydrazine-1-carboximidamide] | 75.91 ± 0.32 | 178.2 ± 0.92 | 178 | – | – | – | –
[H]/N=C(/N)NN=C(/C=C/c1cccc(OCc2ccccc2)c1)c1cn(Cc2ccccc2)c2ccccc12 [Compound 1o, (Z)-2-((E)-1-(1-Benzyl-1H-indol-3-yl)-3-(3-(benzyloxy)phenyl)allylidene)hydrazine-1-carboximidamide] | 126.6 ± 0.99 | 12.8 ± 0.42 | 12.9 | – | – | – | –
[H]/N=C(/N)NN=C(/C=C/c1ccc(OCc2ccccc2)cc1)c1cn(Cc2cccc(OCc3ccccc3)c2)c2ccccc12 [Compound 3i, (Z)-2-((E)-1-(1-(3-(Benzyloxy)benzyl)-1H-indol-3-yl)-3-(4-(benzyloxy)phenyl)allylidene)hydrazine-1-carboximidamide] | 26.99 ± 0.13 | 189 ± 1.91 | 191 | – | – | – | –
[H]/N=C(/N)NN=C(/C=C/c1ccc(F)c(F)c1)c1cn(Cc2ccc(C(C)(C)C)cc2)c2ccccc12 [Compound 3d, (Z)-2-((E)-1-(1-(4-(tert-Butyl)benzyl)-1H-indol-3-yl)-3-(3,4-difluorophenyl)allylidene)hydrazine-1-carboximidamide] | – | – | – | 3.71 | 195.9 ± 1.73 | 4.11 | 76.9 ± 2.38
[H]/N=C(/N)NN=C(/C=C/c1cc(OC)ccc1OC)c1cn(Cc2ccc(CCCC)cc2)c2ccccc12 [Compound 3l, (Z)-2-((E)-1-(1-(4-Butylbenzyl)-1H-indol-3-yl)-3-(2,5-dimethoxyphenyl)allylidene)hydrazine-1-carboximidamide] | 58.4 ± 0.91 | 196 ± 3.04 | 195 | – | – | – | –
[H]/N=C(/N)NN=C(/C=C/c1cccc(OC)c1)c1cn(Cc2ccccc2)c2ccccc12 [Compound 1e, (Z)-2-((E)-1-(1-Benzyl-1H-indol-3-yl)-3-(3-methoxyphenyl)allylidene)hydrazine-1-carboximidamide] | 137.8 ± 0.14 | 117.2 ± 0.57 | 117 | – | – | – | –
